The test system of experiment [1] is TMPRSS4 over-expressing colorectal cancer cell line SW480. The experiment is described as follows: Inhibitory effect on infiltration of cancer cells over-expressing TMPRSS4 (matrigel trans-well). In kind it is cell-based. To be noted: Homo sapiens, read-out: Inhibition rate of target-expressing colorectal cancer cell activity (%, 0.1~2 uM). As to the method: The cells were distributed in a 6-well plate at the density of 3×10^5 cells/well, followed by transfection. 48 hours later, the medium was replaced with a selection medium (800 μg/ml G418 medium). G418-resistant clone was separated, followed by culture for 2 weeks, during which selection was performed.
The cancer cell line constructed in step 1 was distributed in a 24-well trans-well plate (8 μm pore size; Costar, USA) whose porous membrane was coated with 100 μl of matrigel (BD Biosciences, USA) diluted with serum-free medium at the concentration of 250 μg/ml, which stood at room temperature for 1 hour for solidification. Lower chamber of the trans-well plate was coated with 100 μl of collagen type I (Sigma) at the concentration of 20 μg/ml. […] While culturing the cells in a 37, 5% CO2 incubator for 48 hours, cell migration from the upper chamber to lower chamber was allowed. […] The excessive crystal violet solution was washed away with distilled water. The migrated cell number was counted from 5 randomly selected areas (×200). The experiment was repeated at least twice under the same condition, and the representative result was presented.
The inhibitory effect of each compound on the infiltration of TMPRSS4 over-expressing colorectal cancer cell line SW480 was calculated by Mathematical Formula 1, which presents the number of infiltrated cells with % by the number of infiltrated cells in the negative control treated with DMSO. Infiltration Inhibition Rate (%)=100−Infiltrated cell number with the treatment of each compound/Infiltrated cell number with the treatment of DMSO×100 [Mathematical Formula 1]

For experiment [2], the target named is T1, TMPRSS4 serine protease (Homo sapiens, UniProt Q9NRS4).
T1 construct: TMPRSS4 serine protease domain (205th Val˜437th Leu) was cloned in pET21b/NdeI-XhoI; inferred from pET21b XhoI cloning and Ni-NTA purification) (C); made in house; host or cells: E. coli BL21 (DE3)
The experiment is described as follows: Inhibitory effect on TMPRSS4 serine protease activity using peptide substrate. The following applies: kallikrein peptide substrate 100 μM, DMSO negative control; for inhibition at 30 µM / Intracellular protease activity Inhibition % 30 uM: 30 uM compound; for inhibition at 30 µM: read-out: Intracellular protease activity Inhibition % 30 uM; for inhibition at 100 µM: 100 uM compound, read-out: Intracellular protease activity Inhibition % 100 uM; for Intracellular protease activity Inhibition % 10 uM / inhibition at 10 µM: 10 uM compound; for inhibition at 10 µM: read-out: Intracellular protease activity Inhibition % 10 uM. The format is biochemical. The procedure:
TMPRSS4 serine protease domain (205th Val˜437th Leu) was cloned in pET21b/NdeI-XhoI, which was introduced in E. coli BL21 (DE3). At this time, FlagX2-enterokinase cleavage site ([…]; total 15 amino acids) was inserted in N-terminal of TMPRSS4 serine protease domain as shown in FIG. 1. The forward and reverse primers for PCR used for the cloning were presented by SEQ. ID. NO: 1 and NO: 2.
The cells were cultured in 10 ml of LB containing ampicillin at 37° C. overnight. IL of LB+ampicillin was added thereto, followed by further culture until OD reached 0.6˜0.8. 0.1 mM IPTG was added thereto, followed by further culture for 16 hours. Cell pellet was obtained, purified by Ni-NTA (Qiagen), and dialyzed. TMPRSS4 serine protease (pro-form) labeled with 2 mg of 2Xflag-enterokinase cleavage site was conjugated to Ni-NTA resin (4°, overnight). Enterokinase (NEB) was treated thereto at the concentration of 0.0002%/w/w at room temperature for 5 hours. The sample was washed, eluted with 50 mM imidazole in 20 mM of sodium phosphate buffer, and then dialyzed.
The protein activity was evaluated by measuring fluorescence shown during hydrolysis of the peptide. […] Reaction was induced after adding 100 μM of the peptide substrate into reaction buffer (50 mM Tris-HCl (pH 8.0), 10 mM CaCl2, 1 μM ZnCl2). Then, fluorescence was measured at 5 minutes interval (excitation 385 nm, emission 455 nm).
Then, fluorescence (excitation 385 nm/emission 455 nm) was measured at 5 minutes interval for 150 minutes. […] Dimethylsulfoxide (DMSO) was used as the negative control.

Setting [3] is: SW480 over-expressing TMPRSS4, 48 hours.

Each structure is given as a SMILES string. Where two headings read alike, the source gives them in different places.

T1 sequence (Q9NRS4 205-437): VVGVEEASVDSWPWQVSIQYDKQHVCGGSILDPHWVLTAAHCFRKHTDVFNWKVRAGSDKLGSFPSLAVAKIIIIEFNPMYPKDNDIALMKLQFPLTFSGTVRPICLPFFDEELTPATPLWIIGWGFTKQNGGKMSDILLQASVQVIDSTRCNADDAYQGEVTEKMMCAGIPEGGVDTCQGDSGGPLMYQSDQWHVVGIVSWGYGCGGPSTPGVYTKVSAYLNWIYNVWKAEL

Broadly, the inhibition is the drop in the measured response relative to a control, in per cent. `O=C(Nc1nnc(C(F)(F)F)s1)c1cc(Cl)ccc1O` [Example 28, 5-chloro-2-hydroxy-N-(5-trifluoromethyl-[1,3,4]thiadiazole-2-yl)-benzamide]: the inhibition at 2 µM in experiment [1] (2 uM, SW480 over-expressing TMPRSS4, 48 hours) is 52%. Further, in experiment [2], the inhibition at 30 µM came out at 75% and the inhibition at 100 µM stood at 100%.

With `O=C(Nc1nc(-c2ccccc2)cs1)c1cc(Cl)ccc1O` [Example 53, 5-chloro-2-hydroxy-N-(4-phenylthiazole-2-yl)benzamide], the inhibition at 0.1 µM in experiment [1] (setting [3]) amounted to 34%. Moreover, the inhibition at 1 µM in experiment [1] (1 uM, SW480 over-expressing TMPRSS4, 48 hours) was determined as 56%. For the same molecule, in experiment [2], the inhibition at 30 µM came out at 91% and the inhibition at 100 µM was 98%.

With `O=C(Nc1cc(C(F)(F)F)c(Br)c(C(F)(F)F)c1)c1cc(Cl)ccc1O` [Example 65, N-(4-bromo-3,5-bis(trifluoromethyl)phenyl)-5-chloro-2-hydroxybenzamide], in experiment [1] (setting [3]), the inhibition at 0.1 µM came to 53%. Also, in experiment [2], the “Intracellular protease activity Inhibition % 10 uM” value amounted to 58%, the inhibition at 10 µM was in the range of 51 to 100% and the “Intracellular protease activity Inhibition % 30 uM” value came out at 85%.

With `O=C(Nc1cc(Br)cc(C(F)(F)F)c1)c1cc(Cl)ccc1O` [Example 22, N-(3-bromo-5-(trifluoromethyl)phenyl)-5-chloro-2-hydroxybenzamide], the inhibition at 0.1 µM in experiment [1] (setting [3]) worked out at 43%. For the same molecule, in experiment [2], the “Intracellular protease activity Inhibition % 10 uM” value was determined as 64%, the inhibition at 10 µM was 51 to 100%, the inhibition at 30 µM was found to be 100% and the inhibition at 100 µM was 100%.

In the case of `O=C(Nc1ccc(Cl)c(C(F)(F)F)c1)c1cc(Cl)ccc1O` [Example 32, 5-chloro-N-(4-chloro-3-(trifluoromethyl)phenyl)-2-hydroxybenzamide], in experiment [1] (0.8 uM, SW480 over-expressing TMPRSS4, 48 hours), the inhibition at 0.8 µM came to 68%. In experiment [2], the “Intracellular protease activity Inhibition % 10 uM” value was determined as 71%, the inhibition at 10 µM lay within 51 to 100%, the inhibition at 30 µM was 95% and the inhibition at 100 µM is 99%.

For the molecule `O=C(Nc1cc(C(F)(F)F)cc(C(F)(F)F)c1)c1cc([N+](=O)[O-])ccc1O` [Example 55, N-(3,5-bis(trifluoromethyl)phenyl)-2-hydroxy-5-nitrobenzamide], the inhibition at 0.1 µM in experiment [1] (setting [3]) turned out to be 26%. Besides, in experiment [2], the inhibition at 10 µM worked out at 33% and the inhibition at 30 µM stood at 78%.

Regarding `N#Cc1ccc(NC(=O)c2cc(Cl)ccc2O)cc1C(F)(F)F` [Example 19, 5-chloro-N-(4-cyano-3-(trifluoromethyl)phenyl)-2-hydroxybenzamide], the inhibition at 2 µM in experiment [1] (SW480, 48 h) is 81%. Besides, in experiment [2], the inhibition at 30 µM is 88% and the inhibition at 100 µM amounted to 100%.

As to `O=C(Nc1nccs1)c1cc(Cl)ccc1O` [Example 51, 5-chloro-2-hydroxy-N-(thiazole-2-yl)benzamide], in experiment [2], the inhibition at 30 µM was 44% and the inhibition at 100 µM was 90%.

As to `NC(=O)c1ccc(O)c(C(=O)Nc2cc(C(F)(F)F)cc(C(F)(F)F)c2)c1` [Example 38, N^3-(3,5-bis-trifluoromethyl-phenyl)-4-hydroxy-isophthalamide], in experiment [2], the inhibition at 10 µM worked out at 0% and the inhibition at 30 µM worked out at 21%.

Regarding `O=C(Nc1cc(C(F)(F)F)cc(C(F)(F)F)c1)c1cc(-c2ccc(F)cc2F)ccc1O` [Example 30], in experiment [2], the inhibition at 10 µM is 5% and the inhibition at 30 µM is 31%.

On to `O=C(Nc1ccc(C(F)(F)F)c(C(F)(F)F)c1)c1cc(Cl)ccc1O` [Example 62, N-(3,4-bis(trifluoromethyl)phenyl)-5-chloro-2-hydroxybenzamide], for which, in experiment [2], the inhibition at 10 µM was 37% and the inhibition at 30 µM came to 59%.

As for `O=C(Nc1ccc(Br)c(C(F)(F)F)c1)c1cc(Cl)ccc1O` [Example 16, N-(4-bromo-3-(trifluoromethyl)phenyl)-5-chloro-2-hydroxybenzamine], in experiment [2], the “Intracellular protease activity Inhibition % 10 uM” value was 80%, the “Intracellular protease activity Inhibition % 30 uM” value was determined as 93% and the inhibition at 100 µM worked out at 98%.

Consider `O=C(Nc1ccnc(Cl)c1)c1cc(Cl)ccc1O` [Example 47, 5-chloro-N-(2-chloropyridine-4-yl)-2-hydroxybenzamide], for which, in experiment [2], the inhibition at 30 µM worked out at 35% and the inhibition at 100 µM was found to be 21%.

As to `O=C(Nc1cc(C(F)(F)F)cc(C(F)(F)F)c1)c1cccc(Cl)c1O` [Example 26, N-(3,5-bis-trifluoromethyl-phenyl)-3-chloro-2-hydroxy-benzamide], in experiment [2], the “Intracellular protease activity Inhibition % 10 uM” value turned out to be 61%, the inhibition at 10 µM is 51 to 100% and the inhibition at 30 µM was 93%.

With `Nc1ccc(O)c(C(=O)Nc2cc(C(F)(F)F)cc(C(F)(F)F)c2)c1` [Example 31, 5-amino-N-(3,5-bis(trifluoromethyl)phenyl)-2-hydroxybenzamide], in experiment [2], the inhibition at 10 µM came to 3% and the inhibition at 30 µM was found to be 30%.

As to `O=C(Nc1ccccc1)c1cc(Cl)ccc1O` [Example 59, 5-chloro-2-hydroxy-N-phenylbenzamide], in experiment [2], the inhibition at 30 µM worked out at 13% and the inhibition at 100 µM came out at 75%.

Consider `O=C(Nc1ccc(C(F)(F)F)cn1)c1cc(Cl)ccc1O` [Example 41, 5-chloro-2-hydroxy-N-(5-(trifluoromethyl)pyridine-2-yl)benzamide], for which, in experiment [2], the inhibition at 30 µM is 25% and the inhibition at 100 µM was found to be 47%.

For the molecule `O=C(Nc1cc(C(F)(F)F)ccc1F)c1cc(Cl)ccc1O` [Example 21, 5-chloro-N-(2-fluoro-5-(trifluoromethyl)phenyl)-2-hydroxybenzamide], the inhibition at 30 µM in experiment [2] was 100%.

On to `N#Cc1ccc(NC(=O)c2cc(Cl)ccc2O)cc1` [Example 12, 5-chloro-N-(4-cyanophenyl)-2-hydroxybenzamide], for which, in experiment [2], the inhibition at 30 µM was 29% and the inhibition at 100 µM amounted to 69%.

As for `O=C(Nc1ccc(C(F)(F)F)cc1)c1cc(Cl)ccc1O` [Example 15, 5-chloro-N-(4-(trifluoromethyl)phenyl)-2-hydroxybenzamide], in experiment [2], the inhibition at 10 µM was 22% and the inhibition at 30 µM came out at 100%.

Regarding `O=C(NC1=NCCS1)c1cc(Cl)ccc1O` [Example 69, 5-chloro-N-(4,5-dihydrothiazol-2-yl)-2-hydroxybenzamide], the inhibition at 10 µM in experiment [2] is 17%.

Turning to `O=C(Nc1cc(C(F)(F)F)cc(C(F)(F)F)c1)c1ccc(C(F)(F)F)cc1O` [Example 13, N-(3,5-bis(trifluoromethyl)phenyl)-4-(trifluoromethyl)-2-hydroxybenzamide], in experiment [2], the inhibition at 10 µM was found to be 32% and the inhibition at 30 µM came to 79%.

Turning to `Cc1ccc(O)c(C(=O)Nc2cc(C(F)(F)F)cc(C(F)(F)F)c2)c1` [Example 3, N-(3,5-bis(trifluoromethyl)phenyl)-2-hydroxy-5-methylbenzamide], in experiment [2], the inhibition at 10 µM was found to be 0% and the inhibition at 30 µM stood at 64%.

On to `O=C(Nc1cc(C(F)(F)F)cc(C(F)(F)F)c1)c1cc(Cl)cnc1O` [Example 67, N-(3,5-bis(trifluoromethyl)phenyl)-5-chloro-2-hydroxynicotineamide], for which, in experiment [2], the inhibition at 10 µM is 0% and the inhibition at 30 µM came to 19%.

The values above are taken from patent publication US9266872B2, “2-hydroxyarylamide derivative or pharmaceutically acceptable salt thereof, preparation method thereof, and pharmaceutical composition for preventing or treating cancer containing same as active ingredient” (KOREA RESEARCH INSTITUTE OF BIOSCIENCE AND BIOTECHNOLOGY, priority 2011, dated 2016).
